A short description of series [1]: Study 1: single-escalating oral dose pharmacokinetics in healthy adult subjects (fed, and 150 mg fasted). In kind it is in vivo, human. The settings on record: 50 to 800 mg, fed state; formal test inconclusive. As for the experimental part:
Study 1 was the first-in-human study that investigated the safety, tolerability, and PK of single-escalating doses of Compound 1, given orally, to healthy adult subjects. […] The data from this study were used for the selection of doses for Study 2.
In Study 1, Compound 1 was administered to healthy adult subjects as a single PO dose of 2, 10, 50, 150, 400, or 800 mg in the fed state and 150 mg in the fasted state. Absorption occurred moderately late, achieving peak Cmax between 4 to 6 hours following dosing in the fed state.
When Compound 1 was given in the fed state, median time to reach maximum plasma concentration (Tmax) occurred between 4 and 6 hours.
As part of this single-dose escalation study, a food effect PK investigation was performed to examine Compound 1 exposures in both the fed and fasted states at the 150-mg dose level. A total of 6 subjects were administered 150 mg Compound 1 in each of these 2 dosing groups. Of these 6 subjects, 4 subjects received Compound 1 at the same dose in both fed and fasted states. […] Table 6 provides a summary of the PK parameters at the 150-mg dose level under both fed and fasted state conditions.
PK parameters AUC0-∞ and Cmax were analyzed separately for dose proportionality for Compound 1 from 50 to 800 mg when administered in the fed state. […]

The next series deals with T1, CRF1 receptor (Homo sapiens, UniProt P34998).
T1 construct: from tissue; host or cells: living human patients
T1 sequence (P34998 24-415): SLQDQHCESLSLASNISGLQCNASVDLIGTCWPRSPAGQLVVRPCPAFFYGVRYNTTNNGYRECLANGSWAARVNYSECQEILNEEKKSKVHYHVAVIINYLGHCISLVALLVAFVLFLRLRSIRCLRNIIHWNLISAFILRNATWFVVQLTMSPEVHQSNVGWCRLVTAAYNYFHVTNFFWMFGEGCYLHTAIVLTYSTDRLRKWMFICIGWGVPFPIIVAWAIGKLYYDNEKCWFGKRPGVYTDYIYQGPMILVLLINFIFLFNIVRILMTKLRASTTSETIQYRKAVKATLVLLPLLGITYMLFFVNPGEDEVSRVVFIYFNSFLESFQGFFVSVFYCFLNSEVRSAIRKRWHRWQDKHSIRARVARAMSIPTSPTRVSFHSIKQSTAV
Description: Phase 2 study in adults with classic CAH: hormone response (ACTH, 17-OHP, androstenedione). Format: in vivo. The settings on record: CAH patients. An excerpt:
Cohort A of the Phase 2 Study includes a 6-week, multiple-dose, dose escalation study of Compound 1 for the treatment of adults with classic CAH. After screening, eligible patients will be enrolled into a 6-week treatment period followed by a 4-week washout/safety follow-up period.
This cohort will be conducted in approximately 9 patients, who will receive Compound 1 daily for up to 6 weeks. Compound 1 will be administered as an oral daily dose. Patients will undergo titration of Compound 1 through three escalating dosage strengths at 2-week intervals. […]
Patients in Cohort B will receive study drug at 200 mg BID, with a dose in the morning and a dose in the evening, either with a meal or consumption of a standardized snack. For Cohorts C and D, the dose level and the frequency and timing of dosing will be determined based on interim data from the previous cohorts. […]
Outcome Measures Primary Outcome Measure: • 1. […] To assess the efficacy of Compound 1 in subjects with classic CAH as measured by percent and absolute change in 17-OHP compared to baseline. […] To explore the dose(s) of Compound 1 that cause pharmacodynamics changes in plasma concentrations of ACTH, androstenedione, and testosterone, as measured by the absolute and percent change from baseline by dose. • 4. […]

From US12115166B2, “Corticotropin releasing factor receptor antagonists” (Spruce Biosciences, Inc., priority 2017, dated 2024) come the findings set out here.

Each structure is given as a SMILES string.

On to `CCC(CC)c1cc(C)nc2c(-c3sc(N4CCOCC4)nc3Cl)c(C)nn12` [Compound 1, 3-(4-Chloro-2-(morpholin-4-yl)thiazol-5-yl)-7-(1-ethylpropyl)-2,5-dimethylpyrazolo(1,5-a)pyrimidine], for which, in series [1], the “dose proportionality of Cmax” value is recorded as “more than dose proportional”. Further, the “morning rise in A4” value at CRF1 receptor is recorded as “attenuates”.
